For this test, the target named is T1, rat Y5 receptor (Rattus norvegicus, UniProt Q63634).
T1 construct: expressed in transfected cells; host or cells: C6 cells (membrane preparation)
T1 sequence (Q63634 1-445): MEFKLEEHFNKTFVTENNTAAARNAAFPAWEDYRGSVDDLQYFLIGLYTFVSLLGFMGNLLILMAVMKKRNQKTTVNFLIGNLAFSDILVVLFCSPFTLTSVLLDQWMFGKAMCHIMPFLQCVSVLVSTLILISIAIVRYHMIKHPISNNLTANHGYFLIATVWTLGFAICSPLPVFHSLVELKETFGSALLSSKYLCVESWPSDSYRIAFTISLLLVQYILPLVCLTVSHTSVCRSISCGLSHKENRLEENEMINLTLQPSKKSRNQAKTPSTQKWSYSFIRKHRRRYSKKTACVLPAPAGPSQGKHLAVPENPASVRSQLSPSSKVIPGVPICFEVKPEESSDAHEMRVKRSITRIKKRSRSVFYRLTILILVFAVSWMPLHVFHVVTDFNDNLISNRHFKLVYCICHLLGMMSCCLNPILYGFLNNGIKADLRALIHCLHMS
The experiment in a line: Neuropeptide Y5 receptor binding ([125I]-PYY displacement, membranes of transfected C6 cells). The settings on record: compound at 10^−6 M; radioligand [125I]-PYY 100 pM; C6 cells transfected with rat Y5 receptor. As for the experimental part: Neuropeptide Y5 Receptor Binding Studies:
The methods used for membrane preparation and binding are similar to those described by Y. Hu, B. T. Bloomquist et al. in Y. Hu, B. T. Bloomquist et al., The Journal of Biological Chemistry, 1996, 271, 26315-26319 with modifications. Said literature description is herewith incorporated by reference and forms part of the disclosure. Cells C6 were transfected with the rat Y5 receptor. The cells were grown under standard culture conditions in 150 cm^2 dishes and they were harvested using a rubber scraper and 10 ml PBS. The cells from five dishes were collected and centrifuged 2.500 g for 5 min (4° C.). The pellet was washed by resuspending in 3 ml buffer (Tris-HCl 10 mM, pH 7.4), homogenized using a Potter S homogenizer, 10 strokes at 600 rpm and centrifuged 48.000 g for 20 min (4° C.). The pellet was resuspended in 8 ml membrane buffer (Tris-HCl 25 mM, NaCl 120 mM, KCl 5 mM, KH2PO4 1.2 mM, CaCl2 2.5 mM, MgSO4 1.2 mM, BSA 0.15 mg/ml, Bacitracine 0.5 mg/ml, pH 7.4) and rehomogenized using the Potter S, 10 strokes at 600 rpm. The protein concentration in the incubation was 40 μg/ml. The radioligand was [^125I]-PYY (100 pM) in a total incubation volume of 200 μl. Following incubation at 25° C. for 2 h, the reaction was stopped by addition of 5 ml ice-cold buffer (Tris-HCl 25 mM, NaCl 120 mM, KCl 5 mM, KH2PO4 1.2 mM, CaCl2 2.5 mM, MgSO4 1.2 mM, pH 7.4) and rapid filtration in a Harvester Brandell Cell using filters (Schleicher & Schuell GF 3362) pretreated for two hours with 0.5% polyethyleneimine. Filters were washed one time with 5 ml ice-cold buffer. The filters were placed into plastic scintilation vials and 5 ml scintilation cocktail Ecoscint H were added. The quantity of radioactivity present was determined in a Wallac Winspectral 1414 counter. Non specific binding was determined in the presence of 1 μM de pNPY. All binding assays were done in triplicate.

For orientation: inhibition means the relative decrease from the control value, in per cent. For the molecule `O=C(CN1CCC(N(CC(=O)Nc2ccc3c(c2)-c2ccccc2C3=O)c2ccc(O)cc2)CC1)Nc1ccc2c(c1)-c1ccccc1C2=O` [Example 38, 2-(4-{(4-Hydroxy-phenyl)-[(9-oxo-9H-fluoren-3-ylcarbamoyl)-methyl]-amino}-piperidin-1-yl)-N-(9-oxo-9H-fluoren-3-yl)-acetamide], 1 µM produced 45.1% inhibition.

(Values after US20100099703A1, “PHENYLAMINO-SUBSTITUTED PIPERIDINE COMPOUNDS, THEIR PREPARATION AND USE AS MEDICAMENTS” (priority 2006, published 2010).)
